Legend:
[1] = system: M010B (Human glioma); experiment: Cytotoxicity testing (MTS) on M010B; assay type: cell-based
Protocol: (§1) Cell lines used were A549 (Human lung carcinoma), HeLa (Human cervical carcinoma), MCF-7 (Human mammary gland adenocarcinoma), CEM (Human T-lymphoblastoid from ALL (Acute lymphoblastic leukemia)), M010B (Human glioma), M006X (Human glioma) and Jurkat (Human T-cell leukemia).
(§2) A series of dilutions were prepared and a wavelength scan of the diluted solution was used to determine the wavelength of maximum absorbance for each compound. Five standardized drug concentrations were scanned at this pre-determined wavelength to obtain an estimate of the compound's extinction coefficient.
(§3) A primary MTS assay was used to test the optimal number of cells for cytotoxicity assays. Cells were trypsinized, counted and introduced into seven lanes of a 96-well plate at different cell numbers (eight replicates per lane). Optimal cell numbers were determined after 72 and 96 hours of growth and were used in subsequent cytotoxicity assays. […] Cell viability was determined using the Cell Titer 96 AQueous One Solution Cell Proliferation Assay (Promega, U.S.A.).
(§4) Fits were performed using a dose-response model ideal for data showing an initial response plateau, a transition region, and a final response plateau.
(§5) [formula] […] Itop is the response obtained at very low/no drug concentration. The data and all parameters were normalized to Itop−Ibot, a measure of the maximum effect of the drug.

[2] = system: CEM (Human T-lymphoblastoid from ALL); experiment: Cytotoxicity testing (MTS) on CEM; assay type: cell-based
Protocol: as §1, §2, §3, §4, §5

[3] = system: A549 (Human lung carcinoma); experiment: Cytotoxicity testing (MTS) on A549; assay type: cell-based
Protocol: as §1, §2, §3, §4, §5

[4] = system: M006X (Human glioma); experiment: Cytotoxicity testing (MTS) on M006X; assay type: cell-based
Protocol: as §1, §2, §3, §4, §5

[5] = system: MCF-7 (Human mammary gland adenocarcinoma); experiment: Cytotoxicity testing (MTS) on MCF-7; assay type: cell-based
Protocol: as §1, §2, §3, §4, §5

[6] = system: HeLa (Human cervical carcinoma); experiment: Cytotoxicity testing (MTS) on HeLa; assay type: cell-based
Protocol: as §1, §2, §3, §4, §5

[7] = system: A549, HeLa, MCF-7 and CEM cell lines; experiment: Cytotoxicity, mean over A549, HeLa, MCF-7 and CEM cell lines; settings: for IC50 [log10 M] (mean logIC50): mean over A549, HeLa, MCF-7 and CEM cell lines; for average IC50 values compared with colchicine: average values of Table 3; for cytotoxicity compared with colchicine: cytotoxicity assays
From the text: as §1, §3, §5
Cytotoxicity screening was performed on a number of cell lines based on the cancer of origin and differing morphologies.

SMILES | Fraction of cells that survive at the highest drug concentrations (Ibot) [1] | Fraction of cells that survive at the highest drug concentrations (Ibot) [2] | Fraction of cells that survive at the highest drug concentrations (Ibot) [3] | Fraction of cells that survive at the highest drug concentrations (Ibot) [4] | Fraction of cells that survive at the highest drug concentrations (Ibot) [5] | Fraction of cells that survive at the highest drug concentrations (Ibot) [6] | logIC50 [2] [log10 M] | logIC50 [3] [log10 M] | logIC50 [5] [log10 M] | logIC50 [6] [log10 M] | IC50 [log10 M] (mean logIC50) [7] | logIC50 [1] [log10 M] | logIC50 [4] [log10 M] | average IC50 values compared with colchicine [7] | cytotoxicity compared with colchicine [7] | IC50 ([7]; cytotoxicity experiments, most potent derivative) [nM]
COc1cc2c(c(OC)c1OC)-c1ccc(OC)c(=O)cc1[C@@H](NC(C)=O)CC2 [Colchicine, N-[(7S)-1,2,3,10-tetramethoxy-9-oxo-5,6,7,9-tetrahydrobenzo[α]heptalen-7-yl]acetamide, reference compound] | 0.107 ± 0.017 | 0.016 ± 0.021 | 0.118 ± 0.042 | 0.026 ± 0.005 | 0.377 ± 0.010 | 0.061 ± 0.048 |  |  |  |  |  |  |  |  |  | 
COc1cc2c(c(OC(C)=O)c1OC)-c1ccc(OC)c(=O)cc1[C@@H](NC(C)=O)CC2 [Compound 2, N-[(7S)-2,3,10-trimethoxy-1-((methyl)carbonyloxy)-9-oxo-5,6,7,9-tetrahydrobenzo[α]heptalen-7-yl]acetamide] |  | 0.027 ± 0.021 | 0.283 ± 0.022 |  | 0.424 ± 0.019 | 0.074 ± 0.031 | −6.65 ± 0.08 | −5.89 ± 0.06 | −6.32 ± 0.10 | −6.48 ± 0.13 | −6.34 ± 0.09 |  |  |  |  | 
COc1cc2c(c(O)c1OC)-c1ccc(OC)c(=O)cc1[C@@H](NC(C)=O)CC2 [Compound 3, N-[(7S)-1-hydroxy-2,3,10-trimethoxy-9-oxo-5,6,7,9-tetrahydrobenzo[α]heptalen-7-yl]acetamide] |  |  | 0.235 ± 0.048 |  | 0.518 ± 0.033 |  |  | −5.29 ± 0.11 | −5.25 ± 0.10 |  |  |  |  |  |  | 
CCC(=O)Oc1c(OC)c(OC)cc2c1-c1ccc(OC)c(=O)cc1[C@@H](NC(C)=O)CC2 [Compound 4, N-[(7S)-1-((ethyl)carbonyloxy)-2,3,10-trimethoxy-9-oxo-5,6,7,9-tetrahydrobenzo[α]heptalen-7-yl]cetamide] |  | −0.031 ± 0.049 | 0.332 ± 0.028 |  | 0.399 ± 0.021 | 0.058 ± 0.048 | −5.39 ± 0.11 | −5.07 ± 0.04 | −5.23 ± 0.07 | −5.41 ± 0.13 | −5.27 ± 0.09 |  |  |  |  | 
COc1cc2c(c(OC(=O)C(C)C)c1OC)-c1ccc(OC)c(=O)cc1[C@@H](NC(C)=O)CC2 [Compound 5, N-[(7S)-1-(((methyl)ethyl)carbonyloxy)-2,3,10-trimethoxy-9-oxo-5,6,7,9-tetrahydrobenzo [α]heptalen-7-yl]acetamide] | 0.258 ± 0.024 | −0.003 ± 0.048 | 0.265 ± 0.043 | 0.031 ± 0.018 | 0.451 ± 0.025 | 0.025 ± 0.044 | −5.51 ± 0.13 | −5.09 ± 0.06 | −5.25 ± 0.08 | −5.46 ± 0.13 | −5.33 ± 0.10 | −5.22 ± 0.06 | −6.12 ± 0.04 |  |  | 
COc1cc2c(c(OC(C)C)c1OC)-c1ccc(OC)c(=O)cc1[C@@H](NC(C)=O)CC2 [Compound 7, N-[(7S)-1-(ethoxy-1-methyl)-2,3,10-trimethoxy-9-oxo-5,6,7,9-tetrahydrobenzo[α]heptalen-7-yl]acetamide] |  | 0.000 ± 0.014 | 0.229 ± 0.014 |  | 0.464 ± 0.009 | 0.066 ± 0.022 | −8.49 ± 0.10 | −7.66 ± 0.08 | −8.10 ± 0.05 | −8.25 ± 0.09 | −8.12 ± 0.08 |  |  | stronger than colchicine | moderately better than colchicine | 
COc1cc2c(c(OCC(C)C)c1OC)-c1ccc(OC)c(=O)cc1[C@@H](NC(C)=O)CC2 [Compound 7a, N-[(7S)-2,3,10-trimethoxy-1-(2-methylpropoxy)-9-oxo-5,6,7,9-tetrahydrobenzo[α]heptalen-7-yl]acetamide] | 0.239 ± 0.031 | 0.022 ± 0.020 | 0.222 ± 0.026 | 0.197 ± 0.024 | 0.406 ± 0.014 | 0.051 ± 0.032 | −6.76 ± 0.08 | −6.52 ± 0.13 | −6.17 ± 0.06 | −6.66 ± 0.11 | −6.53 ± 0.10 | −6.60 ± 0.14 | −7.12 ± 0.06 |  | moderately better than colchicine | 
CCCOc1c(OC)c(OC)cc2c1-c1ccc(OC)c(=O)cc1[C@@H](NC(C)=O)CC2 [Compound 8, N-[(7S)-2,3,10-trimethoxy-9-oxo-1-(propanoxy)-5,6,7,9-tetrahydrobenzo[α]heptalen-7-yl]acetamide] | 0.181 ± 0.020 | 0.000 ± 0.013 | 0.246 ± 0.013 | 0.072 ± 0.014 | 0.433 ± 0.013 | 0.044 ± 0.020 | −8.48 ± 0.10 | −7.80 ± 0.07 | −7.50 ± 0.12 | −7.68 ± 0.09 | −7.86 ± 0.10 | −7.49 ± 0.13 | −7.98 ± 0.03 |  | moderately better than colchicine | 
COc1c(O)cc2c(c1OC)-c1ccc(SC)c(=O)cc1[C@@H](NC(C)=O)CC2 [Compound 40, N-[(7S)-3-hydroxy-1,2-dimethoxy-3-hydroxy-10-methylsulfanyl-9-oxo-5,6,7,9-tetrahydrobenzo[α]heptalen-7-yl]acetamide] |  |  |  |  |  |  |  |  |  |  |  |  |  |  | consistently the most effective | 
C=CCOc1cc2c(c(OC)c1OC)-c1ccc(SC)c(=O)cc1[C@@H](NC(C)=O)CC2 [Compound 41, N-[(7S)-1,2-dimethoxy-10-methylsulfanyl-9-oxo-3-(prop(2-en)oxy)-5,6,7,9-tetrahydrobenzo[α]heptalen-7-yl]acetamide] |  | −0.050 ± 0.022 | 0.243 ± 0.012 |  | 0.472 ± 0.016 | 0.039 ± 0.016 | −8.29 ± 0.10 | −8.50 ± 0.11 | −8.31 ± 0.12 | −8.45 ± 0.11 | −8.39 ± 0.11 |  |  | stronger than colchicine |  | 
CCCOc1cc2c(c(OC)c1OC)-c1ccc(SC)c(=O)cc1[C@@H](NC(C)=O)CC2 [Compound 43, N-[(7S)-3-propoxy-1,2-dimethoxy-10-methylsulfanyl-9-oxo-5,6,7,9-tetrahydrobenzo[α]heptalen-7-yl]acetamide] | 0.214 ± 0.022 | 0.010 ± 0.014 | 0.198 ± 0.024 |  | 0.399 ± 0.015 | 0.025 ± 0.025 | −8.55 ± 0.09 | −8.76 ± 0.11 | −8.71 ± 0.10 | −8.66 ± 0.12 | −8.67 ± 0.11 | −8.51 ± 0.15 |  | stronger than colchicine | consistently the most effective | 2.13 ± 0.77
COc1c(O)cc2c(c1OC)-c1ccc(OC)c(=O)cc1[C@@H](NC(C)=O)CC2 [Compound 50] |  |  |  |  |  |  |  |  |  |  |  |  |  |  | consistently the most effective | 

— patent US9458101B2 (priority 2009, dated 2016)
